Laboratory results reported in ChEMBL document CHEMBL3784948, “Pharmacokinetics of diclofenac and five metabolites after single doses in healthy volunteers and after repeated doses in patients” (Xenobiotica, 1988).

Legend:
Type in all cases: ADME, organism-based
Homo sapiens [1] = assay: Tmax in healthy volunteer (3 volunteers) assessed as 4',5-dihydroxy diclofenac at 100 mg, po administered as single dose by capillary column gas chromatographic method; conditions: in vivo
[2] = Total drug excretion in healthy volunteer (3 volunteers) urine assessed as 4',5-dihydroxy diclofenac at 100 mg, po administered as single dose measured over 96 hrs by capillary column gas chromatographic method; conditions: human, in vivo
Homo sapiens [3] = assay: Apparent elimination half life in healthy volunteer (3 volunteers) assessed as 4',5-dihydroxy diclofenac at 100 mg, po administered as single dose by capillary column gas chromatographic method; conditions: in vivo
Homo sapiens [4] = assay: AUC (0 to 96 hrs) in healthy volunteer (3 volunteers) assessed as 3'-hydroxy-4'-methoxy diclofenac at 100 mg, po administered as single dose by capillary column gas chromatographic method; set-up: dose 100 mg, time < 96 hr, route oral; conditions: in vivo
Homo sapiens [5] = assay: AUC (0 to infinity) in healthy volunteer (2 volunteers) assessed as 3'-hydroxy-4'-methoxy diclofenac at 100 mg, po administered as single dose by capillary column gas chromatographic method; set-up: dose 100 mg, route oral, time infinity; conditions: in vivo
Homo sapiens [6] = assay: Cmax in healthy volunteer (3 volunteers) assessed as 3'-hydroxy-4'-methoxy diclofenac at 100 mg, po administered as single dose by capillary column gas chromatographic method; set-up: dose 100 mg, route oral; conditions: in vivo
Homo sapiens [7] = assay: Tmax in healthy volunteer (3 volunteers) assessed as 3'-hydroxy-4'-methoxy diclofenac at 100 mg, po administered as single dose by capillary column gas chromatographic method; conditions: in vivo
[8] = Total drug excretion in healthy volunteer (3 volunteers) urine assessed as 3'-hydroxy-4'-methoxy diclofenac at 100 mg, po administered as single dose measured over 96 hrs by capillary column gas chromatographic method; conditions: human, in vivo
Homo sapiens [9] = assay: Apparent elimination half life in healthy volunteer (3 volunteers) assessed as 3'-hydroxy-4'-methoxy diclofenac at 100 mg, po administered as single dose by capillary column gas chromatographic method; conditions: in vivo
Homo sapiens [10] = assay: AUC (0 to 72 hrs) in healthy volunteer assessed as 3'-hydroxy-4'-methoxy diclofenac at 100 mg, po administered as single dose by capillary column gas chromatographic method; set-up: time < 72 hr, dose 100 mg, route oral; conditions: in vivo
Homo sapiens [11] = assay: AUC (0 to 96 hrs) in healthy volunteer (3 volunteers) at 100 mg, po administered as single dose by capillary column gas chromatographic method; set-up: time < 96 hr, dose 100 mg, route oral; conditions: in vivo
Homo sapiens [12] = assay: AUC (0 to infinity) in healthy volunteer (3 volunteers) at 100 mg, po administered as single dose by capillary column gas chromatographic method; set-up: dose 100 mg, time infinity, route oral; conditions: in vivo
Homo sapiens [13] = assay: Cmax in healthy volunteer (3 volunteers) at 100 mg, po administered as single dose by capillary column gas chromatographic method; set-up: dose 100 mg, route oral; conditions: in vivo
[14] = Tmax in healthy volunteer (3 volunteers) at 100 mg, po administered as single dose by capillary column gas chromatographic method; conditions: human, in vivo
[15] = Total drug excretion in healthy volunteer (3 volunteers) urine at 100 mg, po administered as single dose measured over 96 hrs by capillary column gas chromatographic method; conditions: human, in vivo
[16] = Apparent elimination half life in healthy volunteer (3 volunteers) at 100 mg, po administered as single dose by capillary column gas chromatographic method; conditions: human, in vivo, read-out: betat1/2(app) (converted)
Homo sapiens [17] = assay: AUC (0 to 96 hrs) in healthy volunteer (3 volunteers) assessed as 4'-hydroxy diclofenac at 100 mg, po administered as single dose by capillary column gas chromatographic method; set-up: time < 96 hr, dose 100 mg, route oral; conditions: in vivo
Homo sapiens [18] = assay: AUC (0 to infinity) in healthy volunteer (3 volunteers) assessed as 4'-hydroxy diclofenac at 100 mg, po administered as single dose by capillary column gas chromatographic method; set-up: dose 100 mg, route oral, time infinity; conditions: in vivo
Homo sapiens [19] = assay: Cmax in healthy volunteer (3 volunteers) assessed as 4'-hydroxy diclofenac at 100 mg, po administered as single dose by capillary column gas chromatographic method; set-up: dose 100 mg, route oral; conditions: in vivo
Homo sapiens [20] = assay: Tmax in healthy volunteer (3 volunteers) assessed as 4'-hydroxy diclofenac at 100 mg, po administered as single dose by capillary column gas chromatographic method; conditions: in vivo
[21] = Total drug excretion in healthy volunteer (3 volunteers) urine assessed as 4'-hydroxy diclofenac at 100 mg, po administered as single dose measured over 96 hrs by capillary column gas chromatographic method; conditions: human, in vivo
Homo sapiens [22] = assay: Apparent elimination half life in healthy volunteer (3 volunteers) assessed as 4'-hydroxy diclofenac at 100 mg, po administered as single dose by capillary column gas chromatographic method; conditions: in vivo
Homo sapiens [23] = assay: AUC (0 to 96 hrs) in healthy volunteer (3 volunteers) assessed as 3'-hydroxy diclofenac at 100 mg, po administered as single dose by capillary column gas chromatographic method; set-up: dose 100 mg, time < 96 hr, route oral; conditions: in vivo
Homo sapiens [24] = assay: AUC (0 to 96 hrs) in healthy volunteer (3 volunteers) assessed as 5-hydroxy diclofenac at 100 mg, po administered as single dose by capillary column gas chromatographic method; set-up: dose 100 mg, time < 96 hr, route oral; conditions: in vivo
Homo sapiens [25] = assay: AUC (0 to infinity) in healthy volunteer (3 volunteers) assessed as 5-hydroxy diclofenac at 100 mg, po administered as single dose by capillary column gas chromatographic method; set-up: dose 100 mg, route oral, time infinity; conditions: in vivo
Homo sapiens [26] = assay: Cmax in healthy volunteer (3 volunteers) assessed as 5-hydroxy diclofenac at 100 mg, po administered as single dose by capillary column gas chromatographic method; set-up: dose 100 mg, route oral; conditions: in vivo
Homo sapiens [27] = assay: Tmax in healthy volunteer (3 volunteers) assessed as 5-hydroxy diclofenac at 100 mg, po administered as single dose by capillary column gas chromatographic method; conditions: in vivo
[28] = Total drug excretion in healthy volunteer (3 volunteers) urine assessed as 5-hydroxy diclofenac at 100 mg, po administered as single dose measured over 96 hrs by capillary column gas chromatographic method; conditions: human, in vivo
Homo sapiens [29] = assay: Apparent elimination half life in healthy volunteer (3 volunteers) assessed as 5-hydroxy diclofenac at 100 mg, po administered as single dose by capillary column gas chromatographic method; conditions: in vivo
Homo sapiens [30] = assay: AUC (0 to infinity) in healthy volunteer (3 volunteers) assessed as 3'-hydroxy diclofenac at 100 mg, po administered as single dose by capillary column gas chromatographic method; set-up: dose 100 mg, time infinity, route oral; conditions: in vivo
Homo sapiens [31] = assay: Cmax in healthy volunteer (3 volunteers) assessed as 3'-hydroxy diclofenac at 100 mg, po administered as single dose by capillary column gas chromatographic method; set-up: dose 100 mg, route oral; conditions: in vivo
Homo sapiens [32] = assay: Tmax in healthy volunteer (3 volunteers) assessed as 3'-hydroxy diclofenac at 100 mg, po administered as single dose by capillary column gas chromatographic method; conditions: in vivo
[33] = Total drug excretion in healthy volunteer (3 volunteers) urine assessed as 3'-hydroxy diclofenac at 100 mg, po administered as single dose measured over 96 hrs by capillary column gas chromatographic method; conditions: human, in vivo
Homo sapiens [34] = assay: Apparent elimination half life in healthy volunteer (3 volunteers) assessed as 3'-hydroxy diclofenac at 100 mg, po administered as single dose by capillary column gas chromatographic method; conditions: in vivo
Homo sapiens [35] = assay: AUC (0 to 96 hrs) in healthy volunteer (3 volunteers) assessed as 4',5-dihydroxy diclofenac at 100 mg, po administered as single dose by capillary column gas chromatographic method; set-up: time < 96 hr, dose 100 mg, route oral; conditions: in vivo
Homo sapiens [36] = assay: AUC (0 to infinity) in healthy volunteer (3 volunteers) assessed as 4',5-dihydroxy diclofenac at 100 mg, po administered as single dose by capillary column gas chromatographic method; set-up: dose 100 mg, time infinity, route oral; conditions: in vivo
Homo sapiens [37] = assay: Cmax in healthy volunteer (3 volunteers) assessed as 4',5-dihydroxy diclofenac at 100 mg, po administered as single dose by capillary column gas chromatographic method; set-up: dose 100 mg, route oral; conditions: in vivo
Plasma [38] = assay: Steady state trough plasma concentration in chronic polyarthritis patient (6 patients) at 75 mg, po bid administered for 6 to 10 months by capillary column gas chromatographic method; conditions: human, in vivo
Plasma [39] = assay: Steady state trough plasma concentration in chronic polyarthritis patient (6 patients) assessed as 4'-hydroxy diclofenac at 75 mg, po bid administered for 6 to 10 months by capillary column gas chromatographic method; conditions: human, in vivo
Plasma [40] = assay: Steady state trough plasma concentration in chronic polyarthritis patient (6 patients) assessed as 5-hydroxy diclofenac at 75 mg, po bid administered for 6 to 10 months by capillary column gas chromatographic method; conditions: human, in vivo
Plasma [41] = assay: Steady state trough plasma concentration in chronic polyarthritis patient (6 patients) assessed as 3'-hydroxy diclofenac at 75 mg, po bid administered for 6 to 10 months by capillary column gas chromatographic method; conditions: human, in vivo
Plasma [42] = assay: Steady state trough plasma concentration in chronic polyarthritis patient (6 patients) assessed as 4',5-dihydroxy diclofenac at 75 mg, po bid administered for 6 to 10 months by capillary column gas chromatographic method; conditions: human, in vivo
Plasma [43] = assay: Steady state trough plasma concentration in chronic polyarthritis patient (6 patients) assessed as 3'-hydroxy-4'-methoxy diclofenac at 75 mg, po bid administered for 6 to 10 months by capillary column gas chromatographic method; conditions: human, in vivo

## O=C([O-])Cc1ccccc1Nc1c(Cl)cccc1Cl.[Na+] [DICLOFENAC SODIUM]
Homo sapiens [1]
  Tmax: 40.2 min
[2]
  Drug excretion: 5.86 %ID
Homo sapiens [3]
  betat1/2(app): 2.6 h
Homo sapiens [4]
  AUC: 35.22 nmol·h/g
Homo sapiens [5]
  AUC: 61.82 nmol·h/g
Homo sapiens [6]
  Cmax: 0.49 nmol/g
Homo sapiens [7]
  Tmax: 720 min
[8]
  Drug excretion: 1.3 %ID
Homo sapiens [9]
  betat1/2(app): 78 h
Homo sapiens [10]
  AUC: 46.09 nmol·h/g
Homo sapiens [11]
  AUC: 6.05 nmol·h/g
Homo sapiens [12]
  AUC: 6.05 nmol·h/g
Homo sapiens [13]
  Cmax: 9.73 nmol/g
[14]
  Tmax: 19.8 min
[15]
  Drug excretion: 4.45 %ID
[16]
  half-life: 60 min
Homo sapiens [17]
  AUC: 2.43 nmol·h/g
Homo sapiens [18]
  AUC: 2.43 nmol·h/g
Homo sapiens [19]
  Cmax: 1.19 nmol/g
Homo sapiens [20]
  Tmax: 19.8 min
[21]
  Drug excretion: 9.92 %ID
Homo sapiens [22]
  betat1/2(app): 2 h
Homo sapiens [23]
  AUC: 1.71 nmol·h/g
Homo sapiens [24]
  AUC: 0.58 nmol·h/g
Homo sapiens [25]
  AUC: 0.58 nmol·h/g
Homo sapiens [26]
  Cmax: 0.45 nmol/g
Homo sapiens [27]
  Tmax: 19.8 min
[28]
  Drug excretion: 4.66 %ID
Homo sapiens [29]
  betat1/2(app): 1 h
Homo sapiens [30]
  AUC: 1.71 nmol·h/g
Homo sapiens [31]
  Cmax: 0.36 nmol/g
Homo sapiens [32]
  Tmax: 19.8 min
[33]
  Drug excretion: 2.79 %ID
Homo sapiens [34]
  betat1/2(app): 1.1 h
Homo sapiens [35]
  AUC: 1.46 nmol·h/g
Homo sapiens [36]
  AUC: 1.46 nmol·h/g
Homo sapiens [37]
  Cmax: 0.44 nmol/g

## Cc1nnc(SCC2=C(C(=O)O)N3C(=O)[C@@H](NC(=O)Cn4cc(Cl)c(=O)c(Cl)c4)[C@H]3SC2)s1 [CEFAZEDONE]
Plasma [38]
  Cminss: 0.565 nmol/g
Plasma [39]
  Cminss: 0.438 nmol/g
Plasma [40]
  Cminss: 0.234 nmol/g
Plasma [41]
  Cminss: 0.302 nmol/g
Plasma [42]
  Cminss: 0.252 nmol/g
Plasma [43]
  Cminss: 3.687 nmol/g
